Source: patent publication US12544375B2, “Small molecule therapeutic for parkinson's disease paired with a biomarker of therapeutic activity” (The Board of Trustees of the Leland Stanford Junior …, priority 2019, dated 2026)

Tested on: PINK1 null flies
Experiment: Non-progressive phenotypes of PINK1 null flies (ATP levels, thoracic indentation, wing posture, flying ability)
Assay type: in vivo, fly
Settings: PINK1 null flies fed from adult onset with 2.5 μM
Experimental: FIG. 8. Related to FIG. 2-4. Miro1 Reducer in Human Cell and Fly Models. (A) Fibroblasts from Healthy-1 and PD-2 were treated, lysed, and blotted as indicated. Band intensities are normalized to those of GAPDH from the same blots and compared to “Healthy-1, no treatment”. n=4 independent experiments. (B) Fibroblasts from PD-2 were treated and immunostained as indicated. The intensity was quantified for each cell across 264-320 cells from 3 independent experiments, compared to “no treatment”. (C) Fibroblasts were treated, immunoprecipitated (IPed) with anti-Miro1, and blotted as indicated. Similar results were observed twice. (D) Similar as in (C), fibroblasts were treated as indicated, and IPed with anti-Miro1. The GTPase activity of the IPed Miro1 protein was measured as described in Method. […] The MitoSox intensity was quantified for each cell across 106-161 cells from 3 coverslips. […] The TMRM intensity was measured for each cell across 48-60 cells from 3 independent experiments, and expressed as a fraction of the mean of “Healthy-1, no treatment”. […] The movement (the intensity of non-yellow) was quantified for each cell as described in (Tsai et al., 2014) across 22-31 cells from 3 transfections. […] (1) Left: The percentage of TH-positive iPSC-derived neurons out of total cells (Dapi-positive) is calculated after immunocytochemistry under 20× as described in FIG. 3. […]

In the case of `O=C(Nc1ccc(Nc2cc(-n3ccnc3)ncn2)cc1)Nc1cccc(F)c1` [Miro1 Reducer], the “non-progressive phenotypes (lowered ATP levels, thoracic indentation, abnormal wing posture, defective flying ability)” value is reported as “did not improve”.
